Test results published in ChEMBL document CHEMBL5653615 (J Biol Chem, 2013).

Legend:
[1] = biological target: T1, TGF-beta receptor type-1 (Homo sapiens) (UniProt P36897); test: Inhibition of human ALK5 at 1.82 nM by HotSpot assay relative to control
T1 sequence (whole entry): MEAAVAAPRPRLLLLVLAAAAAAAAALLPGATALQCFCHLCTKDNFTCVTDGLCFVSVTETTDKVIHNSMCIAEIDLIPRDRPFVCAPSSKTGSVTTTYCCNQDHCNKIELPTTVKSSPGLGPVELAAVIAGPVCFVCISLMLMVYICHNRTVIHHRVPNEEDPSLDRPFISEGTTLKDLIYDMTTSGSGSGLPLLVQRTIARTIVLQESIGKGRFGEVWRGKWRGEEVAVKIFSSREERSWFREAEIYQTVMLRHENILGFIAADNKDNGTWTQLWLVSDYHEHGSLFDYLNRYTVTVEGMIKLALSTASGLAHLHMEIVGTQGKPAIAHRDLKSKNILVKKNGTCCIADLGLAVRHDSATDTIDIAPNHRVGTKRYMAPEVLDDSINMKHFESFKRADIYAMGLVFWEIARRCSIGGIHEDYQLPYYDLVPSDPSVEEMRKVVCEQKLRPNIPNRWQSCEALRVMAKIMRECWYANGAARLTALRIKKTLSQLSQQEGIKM

[2] = biological target: Homeodomain-interacting protein kinase 3 (Homo sapiens) (UniProt Q9H422); test: Inhibition of human HIPK3 at 1.82 nM by HotSpot assay relative to control
Homeodomain-interacting protein kinase 3 (Homo sapiens), sequence (Q9H422 whole entry, looked up): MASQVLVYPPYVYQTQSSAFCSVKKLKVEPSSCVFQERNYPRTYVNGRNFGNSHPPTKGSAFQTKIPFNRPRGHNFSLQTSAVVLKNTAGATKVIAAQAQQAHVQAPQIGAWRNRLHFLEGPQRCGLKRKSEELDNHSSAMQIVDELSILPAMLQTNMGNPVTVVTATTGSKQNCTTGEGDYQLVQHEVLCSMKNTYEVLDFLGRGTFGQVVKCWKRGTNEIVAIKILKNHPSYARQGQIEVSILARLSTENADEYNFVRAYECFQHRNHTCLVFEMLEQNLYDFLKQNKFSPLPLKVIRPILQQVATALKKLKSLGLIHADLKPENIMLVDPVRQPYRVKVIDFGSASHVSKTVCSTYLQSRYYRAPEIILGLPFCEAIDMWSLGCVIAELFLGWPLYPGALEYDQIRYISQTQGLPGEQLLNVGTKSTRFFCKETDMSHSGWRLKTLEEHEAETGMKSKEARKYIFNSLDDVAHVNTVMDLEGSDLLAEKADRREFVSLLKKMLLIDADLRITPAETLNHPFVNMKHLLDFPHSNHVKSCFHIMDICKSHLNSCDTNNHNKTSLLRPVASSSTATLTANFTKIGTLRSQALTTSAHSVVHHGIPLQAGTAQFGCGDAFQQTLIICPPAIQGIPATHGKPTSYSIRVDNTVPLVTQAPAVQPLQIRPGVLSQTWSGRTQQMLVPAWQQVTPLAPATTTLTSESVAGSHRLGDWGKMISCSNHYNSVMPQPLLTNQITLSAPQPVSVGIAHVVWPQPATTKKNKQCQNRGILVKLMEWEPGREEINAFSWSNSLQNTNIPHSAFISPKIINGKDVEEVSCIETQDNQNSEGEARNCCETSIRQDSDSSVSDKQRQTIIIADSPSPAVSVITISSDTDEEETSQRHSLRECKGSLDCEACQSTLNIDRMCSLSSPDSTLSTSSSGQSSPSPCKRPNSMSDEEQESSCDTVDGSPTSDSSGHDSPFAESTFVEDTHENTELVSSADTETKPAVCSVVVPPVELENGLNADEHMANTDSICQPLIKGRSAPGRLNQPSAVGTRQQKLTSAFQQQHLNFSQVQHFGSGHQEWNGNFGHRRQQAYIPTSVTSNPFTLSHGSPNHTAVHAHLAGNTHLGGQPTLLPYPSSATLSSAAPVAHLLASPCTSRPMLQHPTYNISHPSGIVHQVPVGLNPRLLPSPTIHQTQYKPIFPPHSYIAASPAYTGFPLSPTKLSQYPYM

[3] = biological target: Misshapen-like kinase 1 (Homo sapiens) (UniProt Q8N4C8); test: Inhibition of human MINK1 at 1.82 nM by HotSpot assay relative to control
Misshapen-like kinase 1 (Homo sapiens), sequence (Q8N4C8 whole entry, looked up): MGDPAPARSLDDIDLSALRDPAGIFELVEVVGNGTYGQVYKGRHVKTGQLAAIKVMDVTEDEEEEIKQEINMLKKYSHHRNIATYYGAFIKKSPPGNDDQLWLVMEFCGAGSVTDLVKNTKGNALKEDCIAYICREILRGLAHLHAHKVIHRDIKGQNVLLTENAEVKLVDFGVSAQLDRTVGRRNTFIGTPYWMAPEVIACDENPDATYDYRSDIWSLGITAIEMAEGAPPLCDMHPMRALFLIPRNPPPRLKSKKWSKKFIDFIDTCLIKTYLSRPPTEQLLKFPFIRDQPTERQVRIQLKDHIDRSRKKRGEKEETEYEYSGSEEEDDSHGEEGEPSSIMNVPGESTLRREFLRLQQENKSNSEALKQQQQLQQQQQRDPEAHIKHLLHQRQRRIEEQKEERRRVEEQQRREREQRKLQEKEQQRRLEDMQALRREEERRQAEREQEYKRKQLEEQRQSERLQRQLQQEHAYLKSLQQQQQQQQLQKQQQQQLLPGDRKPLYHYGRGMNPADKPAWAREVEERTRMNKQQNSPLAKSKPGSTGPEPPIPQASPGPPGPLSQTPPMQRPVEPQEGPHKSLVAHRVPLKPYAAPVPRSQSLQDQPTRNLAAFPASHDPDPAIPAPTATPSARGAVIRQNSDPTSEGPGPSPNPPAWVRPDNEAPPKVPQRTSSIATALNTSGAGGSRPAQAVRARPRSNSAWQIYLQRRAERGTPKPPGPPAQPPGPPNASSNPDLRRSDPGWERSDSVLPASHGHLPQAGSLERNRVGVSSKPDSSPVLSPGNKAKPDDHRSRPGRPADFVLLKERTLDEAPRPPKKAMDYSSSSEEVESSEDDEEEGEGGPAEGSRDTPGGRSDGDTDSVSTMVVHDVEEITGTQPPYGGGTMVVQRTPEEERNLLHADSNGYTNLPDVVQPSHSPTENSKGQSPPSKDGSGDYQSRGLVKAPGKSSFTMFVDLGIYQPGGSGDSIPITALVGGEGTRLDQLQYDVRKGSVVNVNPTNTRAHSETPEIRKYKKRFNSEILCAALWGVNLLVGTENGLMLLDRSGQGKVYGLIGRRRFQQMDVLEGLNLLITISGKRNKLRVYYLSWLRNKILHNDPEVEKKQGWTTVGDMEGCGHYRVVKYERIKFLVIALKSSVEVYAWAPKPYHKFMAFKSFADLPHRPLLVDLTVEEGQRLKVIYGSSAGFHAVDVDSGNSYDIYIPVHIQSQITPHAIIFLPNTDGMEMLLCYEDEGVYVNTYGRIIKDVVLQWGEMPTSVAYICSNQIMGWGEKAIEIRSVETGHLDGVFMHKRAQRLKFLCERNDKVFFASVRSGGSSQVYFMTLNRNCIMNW

[4] = biological target: T2, CDK6/cyclin D1 (Homo sapiens) (UniProt P24385+Q00534); test: Inhibition of human CDK6/cyclin D1 at 1.82 nM by HotSpot assay relative to control; type: protein-complex assay
[5] = biological target: T3, Protein kinase C zeta type (Homo sapiens) (UniProt Q05513); test: Inhibition of human PKCzeta at 1.82 nM by HotSpot assay relative to control
T3 sequence (whole entry): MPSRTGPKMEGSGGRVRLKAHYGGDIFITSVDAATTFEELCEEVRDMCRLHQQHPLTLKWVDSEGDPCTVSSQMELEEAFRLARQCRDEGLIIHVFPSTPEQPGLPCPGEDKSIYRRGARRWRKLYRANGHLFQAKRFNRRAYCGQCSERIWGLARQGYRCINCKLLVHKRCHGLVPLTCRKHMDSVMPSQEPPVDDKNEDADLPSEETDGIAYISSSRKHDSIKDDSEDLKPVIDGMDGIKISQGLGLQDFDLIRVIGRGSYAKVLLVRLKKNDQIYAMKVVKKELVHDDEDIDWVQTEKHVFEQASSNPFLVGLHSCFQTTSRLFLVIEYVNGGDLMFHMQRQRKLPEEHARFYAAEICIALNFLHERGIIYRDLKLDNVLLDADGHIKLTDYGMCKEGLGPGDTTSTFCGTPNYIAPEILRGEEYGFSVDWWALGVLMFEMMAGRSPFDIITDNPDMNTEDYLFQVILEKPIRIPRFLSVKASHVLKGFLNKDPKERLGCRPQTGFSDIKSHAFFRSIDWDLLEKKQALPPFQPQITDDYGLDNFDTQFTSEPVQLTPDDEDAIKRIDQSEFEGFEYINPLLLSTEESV

[6] = biological target: T4, Ephrin type-A receptor 3 (Homo sapiens) (UniProt P29320); test: Inhibition of human EPHA3 at 1.82 nM by HotSpot assay relative to control
T4 sequence (whole entry): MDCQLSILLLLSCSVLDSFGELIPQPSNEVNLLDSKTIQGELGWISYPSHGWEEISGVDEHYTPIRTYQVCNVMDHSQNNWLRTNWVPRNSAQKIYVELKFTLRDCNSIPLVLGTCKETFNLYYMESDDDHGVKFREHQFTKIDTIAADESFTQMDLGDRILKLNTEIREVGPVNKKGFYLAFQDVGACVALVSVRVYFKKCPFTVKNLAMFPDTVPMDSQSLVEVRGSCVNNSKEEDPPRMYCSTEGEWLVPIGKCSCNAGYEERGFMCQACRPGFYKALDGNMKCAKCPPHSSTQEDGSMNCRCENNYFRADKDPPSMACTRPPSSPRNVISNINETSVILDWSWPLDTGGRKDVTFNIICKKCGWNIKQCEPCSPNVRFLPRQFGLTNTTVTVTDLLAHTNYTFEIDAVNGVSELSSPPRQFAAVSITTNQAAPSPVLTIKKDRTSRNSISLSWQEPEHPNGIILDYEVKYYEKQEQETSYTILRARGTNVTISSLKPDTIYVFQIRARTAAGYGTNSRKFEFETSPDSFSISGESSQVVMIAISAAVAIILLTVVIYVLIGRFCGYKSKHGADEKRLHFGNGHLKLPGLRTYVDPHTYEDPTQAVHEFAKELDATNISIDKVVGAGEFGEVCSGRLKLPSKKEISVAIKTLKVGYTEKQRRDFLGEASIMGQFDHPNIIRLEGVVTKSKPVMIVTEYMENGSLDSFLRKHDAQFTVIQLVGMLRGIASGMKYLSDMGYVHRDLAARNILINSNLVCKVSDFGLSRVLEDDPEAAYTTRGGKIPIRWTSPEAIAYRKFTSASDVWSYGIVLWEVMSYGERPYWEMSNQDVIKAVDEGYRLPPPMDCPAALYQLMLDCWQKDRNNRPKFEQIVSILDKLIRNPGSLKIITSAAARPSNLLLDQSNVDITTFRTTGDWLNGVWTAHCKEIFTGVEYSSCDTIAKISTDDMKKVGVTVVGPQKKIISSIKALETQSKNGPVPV

[7] = biological target: T5, Dual specificity mitogen-activated protein kinase kinase 6 (Homo sapiens) (UniProt P52564); test: Inhibition of human MKK6 at 1.82 nM by HotSpot assay relative to control
T5 sequence (whole entry): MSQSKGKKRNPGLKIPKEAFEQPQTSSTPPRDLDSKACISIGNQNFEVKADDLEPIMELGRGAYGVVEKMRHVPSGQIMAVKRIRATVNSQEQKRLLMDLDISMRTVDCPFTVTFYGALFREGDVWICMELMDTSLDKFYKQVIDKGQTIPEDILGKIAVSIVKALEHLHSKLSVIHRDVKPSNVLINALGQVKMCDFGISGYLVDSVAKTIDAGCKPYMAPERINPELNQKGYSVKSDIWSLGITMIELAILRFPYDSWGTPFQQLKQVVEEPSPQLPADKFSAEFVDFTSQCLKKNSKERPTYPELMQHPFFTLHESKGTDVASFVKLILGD

[8] = biological target: Serine/threonine-protein kinase 33 (Homo sapiens) (UniProt Q9BYT3); test: Inhibition of human STK33 at 18.6 nM by HotSpot assay relative to control
Serine/threonine-protein kinase 33 (Homo sapiens), sequence (Q9BYT3 whole entry, looked up, canonical isoform): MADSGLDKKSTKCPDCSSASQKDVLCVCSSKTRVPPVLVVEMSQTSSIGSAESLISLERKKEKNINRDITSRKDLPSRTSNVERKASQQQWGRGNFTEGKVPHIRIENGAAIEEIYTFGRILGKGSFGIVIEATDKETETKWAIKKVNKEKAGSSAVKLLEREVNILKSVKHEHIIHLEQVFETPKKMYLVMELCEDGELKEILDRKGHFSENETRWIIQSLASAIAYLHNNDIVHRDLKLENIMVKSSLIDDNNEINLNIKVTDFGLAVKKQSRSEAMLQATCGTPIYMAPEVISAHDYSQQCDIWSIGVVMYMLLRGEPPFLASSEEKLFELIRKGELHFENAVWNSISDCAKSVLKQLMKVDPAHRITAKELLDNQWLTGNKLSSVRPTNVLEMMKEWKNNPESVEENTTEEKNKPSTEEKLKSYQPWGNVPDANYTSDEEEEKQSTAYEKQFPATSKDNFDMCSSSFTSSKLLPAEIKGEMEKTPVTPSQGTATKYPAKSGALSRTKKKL

[9] = biological target: Casein kinase I isoform gamma-2 (Homo sapiens) (UniProt P78368); test: Inhibition of human CK1g2 at 18.6 nM by HotSpot assay relative to control
Casein kinase I isoform gamma-2 (Homo sapiens), sequence (P78368 whole entry, looked up, canonical isoform): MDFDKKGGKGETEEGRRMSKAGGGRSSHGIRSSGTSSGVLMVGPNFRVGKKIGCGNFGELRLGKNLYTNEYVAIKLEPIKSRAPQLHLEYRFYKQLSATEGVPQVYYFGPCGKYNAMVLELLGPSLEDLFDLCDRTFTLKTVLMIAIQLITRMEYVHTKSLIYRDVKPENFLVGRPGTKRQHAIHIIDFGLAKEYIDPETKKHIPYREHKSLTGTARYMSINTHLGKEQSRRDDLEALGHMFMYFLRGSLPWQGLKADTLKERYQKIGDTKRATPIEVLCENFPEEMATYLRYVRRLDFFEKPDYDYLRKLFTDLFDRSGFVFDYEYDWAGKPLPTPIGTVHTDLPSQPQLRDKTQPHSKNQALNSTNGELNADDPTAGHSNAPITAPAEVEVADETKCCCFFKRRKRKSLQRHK

[10] = biological target: T2, CDK6/cyclin D1 (Homo sapiens); test: Inhibition of human CDK6/cyclin D1 at 18.6 nM by HotSpot assay relative to control; type: protein-complex assay
[11] = biological target: MAP kinase-activated protein kinase 2 (Homo sapiens) (UniProt P49137); test: Inhibition of human MAPKAPK2 at 18.6 nM by HotSpot assay relative to control
MAP kinase-activated protein kinase 2 (Homo sapiens), sequence (P49137 whole entry, looked up): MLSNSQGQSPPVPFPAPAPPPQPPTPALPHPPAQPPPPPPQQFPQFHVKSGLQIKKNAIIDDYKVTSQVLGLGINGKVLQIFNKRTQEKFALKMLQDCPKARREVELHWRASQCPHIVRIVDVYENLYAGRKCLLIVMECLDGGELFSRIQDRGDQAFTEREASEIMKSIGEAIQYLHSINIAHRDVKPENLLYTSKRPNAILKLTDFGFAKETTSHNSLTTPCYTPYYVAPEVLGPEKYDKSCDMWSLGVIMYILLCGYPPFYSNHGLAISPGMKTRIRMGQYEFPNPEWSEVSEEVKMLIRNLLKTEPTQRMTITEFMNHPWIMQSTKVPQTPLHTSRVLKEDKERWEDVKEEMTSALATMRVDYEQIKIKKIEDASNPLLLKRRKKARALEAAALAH

Compound | inhibition [1] [%] | inhibition [2] [%] | inhibition [3] [%] | inhibition [4] [%] | inhibition [5] [%] | inhibition [6] [%] | inhibition [7] [%] | inhibition [8] [%] | inhibition [9] [%] | inhibition [10] [%] | inhibition [11] [%]
C[C@@]1(C(=O)Nc2ccc(F)nc2)CCCN1c1nc(Nc2cc(C3CC3)n[nH]2)c2cccn2n1 | -0.63 | -3.9 | 0.36 | -1.74 | -1.74 | 6.1 | 3.26 | – | – | – | –
C[C@]1(O)C[C@@H](c2nc(-c3ccc4ccc(-c5ccccc5)nc4c3)c3c(N)nccn32)C1 | – | – | – | – | – | – | – | -0.08 | -6.22 | 0.62 | 5.71
